Laboratory results published in patent US20150242566A1, “Methods and Systems for Designing Animal Food Compositions” (Hill's Pet Nutrition, Inc., priority 2005, published 2015).

System: gene expression in four canine cell lines: CCL34 (kidney), CRL1430 (thymus), CCL183 (bone), CTAC (thyroid)
Assay: Effect of test substances or ingredients on gene expression in canine cell lines (Affymetrix Canine-1 and Canine-2 gene chips)
Format: cell-based
Conditions: for Direction of gene expression, probe 6282824_at: Canis familiaris carnitine palmitoyl transferase I isoform (CPT1) mRNA, human BC000185; for Direction of gene expression, probe 6282824_at / Direction of gene expression, probe 1605486_at: two concentrations per ingredient (Table 6), vs solvent control; for Direction of gene expression, probe 6283403_at: Sus scrofa carnitine palmitoyltransferase I mRNA, human AK172798; for Direction of gene expression, probe 1605486_at: pyruvate dehydrogenase kinase 4 mRNA
Description: Cells cultured from mammalian cell lines are used to isolate good quality RNA which is then used for future downstream genomic analysis. All work related to the culturing of the cells is to be done under strict aseptic conditions. Procedure: Removing Cells from the OptiCell Chamber (proceed one OptiCell at a time). Check the cells under a microscope to ensure that the cells are alive before isolating RNA. Remove and discard the cell culture medium. Using the OptiCell knife cut away the top membrane exposing the cells on the lower membrane. Wash the membrane to which the cells are attached three times with 1X PBS. Pipette 600 uL of the Buffer RLT solution (containing R-Mercaptoethanol) onto the center of the membrane to which the cells are attached. Using the cell scraper, gently spread the Buffer RLT over the entire surface of the membrane, and then collect the liquid in one corner. Pipette off the entire volume of Buffer RLT and place into a QIAshredder spin column. RNA Isolation: Centrifuge the QIAshredder spin columns at 14,000 rpm for 2 minutes. Discard the spin column but keep the collection tube and its contents. Add 600 uL of 70% ethanol to the collection tube and mix well by pipetting (the total volume now=1.2 mL). Transfer 600 uL of the cell lysate to an RNeasy mini column and centrifuge for 15 seconds at 14,000 rpm. Discard the flow through but keep the collection tube and the spin column. Transfer the remaining volume of cell lysate (˜600 uL) to the spin column and repeat the centrifugation. Discard the flow through but keep the collection tube and the spin column. Add 700 uL Buffer RW1 to the spin column. Centrifuge for 15 seconds at 14,000 rpm to wash the column. Discard the flow through and the collection tube. Transfer the spin column to a new 2 mL collection tube and add 500 uL Buffer RPE to the column. Centrifuge for 15 seconds at 14,000 rpm. Discard the flow through, keep the collection tube/column. Add another 500 uL Buffer RPE to the column. Centrifuge for 2 minutes at 14,000 rpm. Transfer the spin column to a 1.5 mL collection tube. […] Store the final RNA at −70° C. Gene expression was analyzed using Affymetrix Canine 1 and Canine 2 GeneChip® Arrays available commercially from Affymetrix, Inc., Santa Clara, Calif. 95051. Total RNA is reverse transcribed into cDNA. The cDNA is used to generate cRNA which is fragmented and used as probes for GeneChip hybridization. The gene chip is washed and the hybridization signal is measured with an Affymetrix laser scanner. The hybridization data is then validated and normalized for further analysis. Procedure: All procedures follow exactly as described in GeneChip Expression Analysis Technical Manual (Affymetrix Copyright 1999-2003). Use 5 microgram of total RNA for the first strand cDNA synthesis. Use either Peltier Thermal Cycler PTC-200 or heat block for temperature control on reactions and probe denaturing. The quality control is performed using RNA […] chips with BioAnalyer 2100. Use 100 Format (Midi Array) for the canine genechip. […] TAGs; ALA: EPA: DHA; linoleic acid; stearic acid (SA), conjugated linoleic acid (CLA), GLA; arachidonic acid; lecithin; vitamin A, vitamin D, vitamin E, vitamin K, riboflavin, niacin, pyridoxine, pantothenic acid, folic acid, biotin vitamin C, catechin, quercetin, theaflavin; ubiquinone: lycopene, lycoxanthin; resveratrol; α-lipoic acid; L-carnitine; D-limonene; glucosamine; S-adenosylmethionine; chitosan, various materials containing one or more of these compounds, and various combination thereof on gene expression in four canine cell lines and appropriate controls. The solvent at the higher of the two concentrations was used as a control. Four canine cell lines are used: CCL34 (kidney), CRL1430 (thymus), CCL183 (bone) (Obtained from The American Tissue Culture Collection) and CTAC (thyroid) (See, Measurement of NK Activity in Effector Cells Purified from Canine Peripheral Lymphocytes. Veterinary Immunology and Immunopathology, 35 (1993) 239-251). […]

Q: How did the “Direction of gene expression, probe Cfa.10478.1.A1_at” value (Bos taurus similar to Type II inositol-1,4,5-trisphosphate 5-phosphatase precursor (LOC538291), human AC005691) turn out when conjugated linoleic acid [CLA] was run?
A: UP (up-regulated if it is >1.5 (for across all 4 cell lines analysis) or >2 (for within cell lines analysis))

Q: What about the “Direction of gene expression, probe Cfa.11267.1.A1_at” value (Homo sapiens cDNA clone IMAGE: 4456146, human BC024645) of the same compound?
A: DOWN (down-regulated if its value is <1/1.5 (for across all 4 cell lines analysis) or <½ (for within cell lines analysis))

Q: What about the “Direction of gene expression, probe Cfa.11358.1.A1_at” value (Homo sapiens solute carrier family 20 (phosphate transporter), member 2 (SLC20A2) mRNA, human AF170802) of the same compound?
A: UP (up-regulated if it is >1.5 (for across all 4 cell lines analysis) or >2 (for within cell lines analysis))

Q: `CCCCC/C=C\C/C=C\C/C=C\C/C=C\CCCC(=O)O` [ARA, arachidonic acid] was tested. Which “Direction of gene expression, probe 6282824_at” value (shortened to “Direction … probe 6282824_at”) did it give?
A: UP (up-regulated if it is >1.5 (for across all 4 cell lines analysis) or >2 (for within cell lines analysis))

Q: And the “Direction of gene expression, probe 1602749_at” value (Homo sapiens BAC clone RP11-44D21 from 4, human AC108866)?
A: UP (up-regulated if it is >1.5 (for across all 4 cell lines analysis) or >2 (for within cell lines analysis))

Q: And the “Direction of gene expression, probe 6283403_at” value?
A: UP (up-regulated if it is >1.5 (for across all 4 cell lines analysis) or >2 (for within cell lines analysis))

Q: What about the “Direction of gene expression, probe 1605486_at” value (from here on “Direction … probe 1605486_at”) (human AK096428) of the same compound?
A: UP (up-regulated if it is >1.5 (for across all 4 cell lines analysis) or >2 (for within cell lines analysis))

Q: `CCCCC/C=C\C/C=C\CCCCCCCC(=O)O` [LA, linoleic acid] was tested. Which “Direction of gene expression, probe 6282385_at” value (Canis familiaris Na+-dependent glutamate transporter (GLAST) mRNA, human D26443) did it give?
A: DOWN (down-regulated if its value is <1/1.5 (for across all 4 cell lines analysis) or <½ (for within cell lines analysis))

Q: And the “Direction … probe 6282824_at” value?
A: UP (up-regulated if it is >1.5 (for across all 4 cell lines analysis) or >2 (for within cell lines analysis))

Q: What about the “Direction … probe 1605486_at” value (human AK096428) of the same compound?
A: UP (up-regulated if it is >1.5 (for across all 4 cell lines analysis) or >2 (for within cell lines analysis))

Q: `CC/C=C\C/C=C\C/C=C\C/C=C\C/C=C\CCCC(=O)O` [EPA, eicosapentaenoic acid] was tested. Which “Direction of gene expression, probe 6283403_at” value did it give?
A: UP (up-regulated if it is >1.5 (for across all 4 cell lines analysis) or >2 (for within cell lines analysis))

Q: What about the “Direction … probe 1605486_at” value (human AK096428) of the same compound?
A: UP (up-regulated if it is >1.5 (for across all 4 cell lines analysis) or >2 (for within cell lines analysis))

Q: What about the “Direction of gene expression, probe 6283329_at” value (similar to secreted frizzled-related protein 4, human AC018634) of the same compound?
A: DOWN (down-regulated if its value is <1/1.5 (for across all 4 cell lines analysis) or <½ (for within cell lines analysis))

Q: What does the source list for `CCCCCCCCCCCCCCCCCC(=O)O` [SA, stearic acid]?
A: Direction of gene expression, probe CfaAffx.9845.1.S1_s_at (Canis familiaris similar to leucine rich repeat containing 45 (LOC483375), human NM_144999): UP (up-regulated if it is >1.5 (for across all 4 cell lines analysis) or >2 (for within cell lines analysis)); Direction of gene expression, probe Cfa.2282.1.S1_at (Canis familiaris similar to pyruvate dehydrogenase kinase isoform 4 (LOC482310) mRNA, human AK096428): UP (up-regulated if it is >1.5 (for across all 4 cell lines analysis) or >2 (for within cell lines analysis)); Direction of gene expression, probe Cfa.791.4.A1_at (Canis familiaris similar to ribosomal protein L24, transcript variant 2 (LOC478547), human NM_000986): UP (up-regulated if it is >1.5 (for across all 4 cell lines analysis) or >2 (for within cell lines analysis))

Q: With `CC/C=C\C/C=C\C/C=C\C/C=C\C/C=C\C/C=C\CCC(=O)O` [DHA, docosahexaenoic acid] as the compound, how does the “Direction … probe 6282824_at” value read?
A: UP (up-regulated if it is >1.5 (for across all 4 cell lines analysis) or >2 (for within cell lines analysis))

Q: And the “Direction of gene expression, probe 6287734_at” value (Canis familiaris similar to Na/Pi cotransporter 4 (LOC478741) mRNA, human BC017952)?
A: UP (up-regulated if it is >1.5 (for across all 4 cell lines analysis) or >2 (for within cell lines analysis))

Q: What about the “Direction … probe 1605486_at” value (human AK096428) of the same compound?
A: UP (up-regulated if it is >1.5 (for across all 4 cell lines analysis) or >2 (for within cell lines analysis))

Q: For `CC/C=C\C/C=C\C/C=C\CCCCCCCC(=O)O` [ALA, α-linolenic acid], which “Direction of gene expression, probe 6282455_at” value (Canis familiaris type I collagen pre-pro-alpha1(I) chain (COL1A1) mRNA, human AB209597) is on record?
A: DOWN (down-regulated if its value is <1/1.5 (for across all 4 cell lines analysis) or <½ (for within cell lines analysis))

Q: What about the “Direction … probe 1605486_at” value (human AK096428) of the same compound?
A: UP (up-regulated if it is >1.5 (for across all 4 cell lines analysis) or >2 (for within cell lines analysis))
